Measured values from ChEMBL document CHEMBL4346695, “Thiophenol-formaldehyde triazole causes apoptosis induction in ovary cancer cells and prevents tumor growth formation in mice model” (2019).
Calls of active or inactive are those of the source. The rule behind the calls is not given here.

Legend:
Caov-3 cell line [1] = test: Antiinvasive activity in human Caov3 cells at 1.5 uM incubated for 48 hrs using hematoxylin by microscopy-based transwell assay relative to control; format: functional
Caov-3 cell line [2] = test: Antiinvasive activity in human Caov3 cells at 2.0 uM incubated for 48 hrs using hematoxylin by microscopy-based transwell assay relative to control; format: functional
Caov-3 cell line [3] = test: Inhibition of cell migration in human Caov3 cells assessed as decrease in migration potential at 0.5 to 2.0 uM incubated for 48 hrs by wound healing assay (reference value: 89.65%); format: functional
Caov-3 cell line [4] = test: Inhibition of metastasis in human Caov3 cells assessed as decrease in MMP2 expression level at 0.5 uM incubated for 48 hrs by Western blot analysis; format: functional, cell-based
Caov-3 cell line [5] = test: Inhibition of metastasis in human Caov3 cells assessed as decrease in MMP9 expression level at 0.5 uM incubated for 48 hrs by Western blot analysis; format: functional, cell-based
Caov-3 cell line [6] = test: Inhibition of metastasis in human Caov3 cells assessed as decrease in MMP2 expression level at 0.25 uM incubated for 48 hrs by Western blot analysis; format: functional, cell-based
Caov-3 cell line [7] = test: Inhibition of metastasis in human Caov3 cells assessed as decrease in MMP9 expression level at 0.25 uM incubated for 48 hrs by Western blot analysis; format: functional, cell-based
Caov-3 cell line [8] = test: Inhibition of metastasis in human Caov3 cells assessed as decrease in FAK activation level at 0.5 uM incubated for 48 hrs by Western blot analysis; format: functional, cell-based
Caov-3 cell line [9] = test: Inhibition of metastasis in human Caov3 cells assessed as decrease in FAK phosphorylation level at 0.5 to 5.0 uM incubated for 48 hrs by Western blot analysis; format: functional, cell-based
Caov-3 cell line [10] = test: Antitumor activity against human Caov3 cells xenografted in BALB/c nude mouse assessed as tumor size at 5 mg/kg, ip incubated for 1 hr post tumor implantation and measured after 20 days (reference value: 1956 +/- 367 mm3); format: functional
Caov-3 cell line [11] = test: Antitumor activity against human Caov3 cells xenografted in BALB/c nude mouse assessed as tumor size at 10 mg/kg, ip incubated for 1 hr post tumor implantation and measured after 20 days (reference value: 1956 +/- 367 mm3); format: functional
Caov-3 cell line [12] = test: Antimetastasis activity against human Caov3 cells xenografted in BALB/c nude mouse assessed as reduction of metastasis in liver at 10 mg/kg, ip incubated for 1 hr post tumor implantation and measured after 20 days by H and E staining-based assay; format: functional, organism-based
Caov-3 cell line [13] = test: Antimetastasis activity against human Caov3 cells xenografted in BALB/c nude mouse assessed as reduction of metastasis in intestine at 10 mg/kg, ip incubated for 1 hr post tumor implantation and measured after 20 days by H and E staining-based assay; format: functional, organism-based
Caov-3 cell line [14] = test: Antimetastasis activity against human Caov3 cells xenografted in BALB/c nude mouse assessed as reduction of metastasis in spleen at 10 mg/kg, ip incubated for 1 hr post tumor implantation and measured after 20 days by H and E staining-based assay; format: functional, organism-based
Caov-3 cell line [15] = test: Antimetastasis activity against human Caov3 cells xenografted in BALB/c nude mouse assessed as reduction of metastasis in peritoneal cavity at 10 mg/kg, ip incubated for 1 hr post tumor implantation and measured after 20 days by H and E staining-based assay; format: functional, organism-based
Caov-3 cell line [16] = test: (§1) Antimetastasis activity against human Caov3 cells xenografted in BALB/c nude mouse assessed as reduction in vWF expression in liver lesions at 10 mg/kg, ip incubated for 1 hr post tumor implantation and measured after 20 days by DAB and hematoxylin staining based immunohistochemical analysis relative to control; format: functional; design: scale not given: the % may be the effect or the level left
Caov-3 cell line [17] = test: as §1, with “lungs” for “liver”; format: functional; design: scale not given: the % may be the effect or the level left
Caov-3 cell line [18] = test: as §1, with “intestinal” for “liver”; format: functional; design: scale not given: the % may be the effect or the level left
Caov-3 cell line [19] = test: as §1, with “peritoneal” for “liver”; format: functional; design: scale not given: the % may be the effect or the level left
Caov-3 cell line [20] = test: (§2) Antimetastasis activity against human Caov3 cells xenografted in BALB/c nude mouse assessed as reduction in vWF expression in liver lesions at 5 mg/kg, ip incubated for 1 hr post tumor implantation and measured after 20 days by DAB and hematoxylin staining based immunohistochemical analysis; format: functional, organism-based
Caov-3 cell line [21] = test: (§3) Antimetastasis activity against human Caov3 cells xenografted in BALB/c nude mouse assessed as reduction in vWF expression in lungs lesions at 5 mg/kg, ip incubated for 1 hr post tumor implantation and measured after 20 days by DAB and hematoxylin staining based immunohistochemical analysis; format: functional, organism-based
Caov-3 cell line [22] = test: (§4) Antimetastasis activity against human Caov3 cells xenografted in BALB/c nude mouse assessed as reduction in vWF expression in intestinal lesions at 5 mg/kg, ip incubated for 1 hr post tumor implantation and measured after 20 days by DAB and hematoxylin staining based immunohistochemical analysis; format: functional, organism-based
Caov-3 cell line [23] = test: (§5) Antimetastasis activity against human Caov3 cells xenografted in BALB/c nude mouse assessed as reduction in vWF expression in peritoneal lesions at 5 mg/kg, ip incubated for 1 hr post tumor implantation and measured after 20 days by DAB and hematoxylin staining based immunohistochemical analysis; format: functional, organism-based
Caov-3 cell line [24] = test: as §1, with “infiltration of macrophages” for “vWF expression”; format: functional; design: scale not given: the % may be the effect or the level left
Caov-3 cell line [25] = test: as §1, with “infiltration of macrophages” for “vWF expression”, “lungs” for “liver”; format: functional; design: scale not given: the % may be the effect or the level left
Caov-3 cell line [26] = test: as §1, with “infiltration of macrophages” for “vWF expression”, “intestinal” for “liver”; format: functional; design: scale not given: the % may be the effect or the level left
Caov-3 cell line [27] = test: as §1, with “infiltration of macrophages” for “vWF expression”, “peritoneal” for “liver”; format: functional; design: scale not given: the % may be the effect or the level left
Caov-3 cell line [28] = test: as §2, with “infiltration of macrophages” for “vWF expression”; format: functional, organism-based
Caov-3 cell line [29] = test: as §3, with “infiltration of macrophages” for “vWF expression”; format: functional, organism-based
Caov-3 cell line [30] = test: as §4, with “infiltration of macrophages” for “vWF expression”; format: functional, organism-based
Caov-3 cell line [31] = test: as §5, with “infiltration of macrophages” for “vWF expression”; format: functional, organism-based

Q: What does the source list for `Fc1ccccc1-n1cc(COCc2ccccc2S)nn1`?
A: Activity (Caov-3 cell line [1]): 39.14%; Activity (Caov-3 cell line [2]): 8.62%; inhibition (INH) (Caov-3 cell line [3]): 6.43%; inhibition (Caov-3 cell line [4]): Active; inhibition (Caov-3 cell line [5]): Active; inhibition (Caov-3 cell line [6]): inactive; inhibition (Caov-3 cell line [7]): inactive; inhibition (Caov-3 cell line [8]): Active; inhibition (Caov-3 cell line [9]): Active; Activity (Caov-3 cell line [10]): 1258 mm3; Activity (Caov-3 cell line [11]): 213.34 mm3; Activity (Caov-3 cell line [12]): Active; Activity (Caov-3 cell line [13]): Active; Activity (Caov-3 cell line [14]): Active; Activity (Caov-3 cell line [15]): Active; Activity (Caov-3 cell line [16]): 7%; Activity (Caov-3 cell line [17]): 8%; Activity (Caov-3 cell line [18]): 6%; Activity (Caov-3 cell line [19]): 5%; Activity (Caov-3 cell line [20]): inactive; Activity (Caov-3 cell line [21]): inactive; Activity (Caov-3 cell line [22]): inactive; Activity (Caov-3 cell line [23]): inactive; Activity (Caov-3 cell line [24]): 8%; Activity (Caov-3 cell line [25]): 9%; Activity (Caov-3 cell line [26]): 7%; Activity (Caov-3 cell line [27]): 5%; Activity (Caov-3 cell line [28]): inactive; Activity (Caov-3 cell line [29]): inactive; Activity (Caov-3 cell line [30]): inactive; Activity (Caov-3 cell line [31]): inactive
